pIC50: −log10 of the molar value.
Columns and labels:
[1] = molecular target: T1, HDAC1 (Homo sapiens, UniProt Q13547); test: HDAC enzyme activity inhibition (in vitro), HDAC1 Fluorimetric Drug Discovery Assay Kit; assay type: biochemical; settings: samples at 100, 1000 and 10000 nM; 37° C. 60 minutes; fluorescence Ex 390, Em 460; read-out: HDAC1 IC50
T1 construct: purchased Enzolifesciences BML-AK511
In short: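 HDAC1 was tested at 100, 1000 and 10000 nM and recombinant human HDAC6 at 0.1, 1, 10, 100 and 1000 nM. Enzyme reactions ran 60 min at 37° C, then developer was added for 30 min at 37° C, and fluorescence (Ex 390, Em 460) was read.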

[2] = molecular target: T2, HDAC6 human recombinant (Homo sapiens, UniProt Q9UBN7); test: HDAC enzyme activity inhibition (in vitro), HDAC6 assay; assay type: biochemical; settings: samples at 0.1, 1, 10, 100 and 1000 nM; 37° C. 60 minutes; fluorescence Ex 390, Em 460; read-out: HDAC6 IC50
T2 construct: purchased Calbiochem 382180
T2 sequence (Q9UBN7 1-1215): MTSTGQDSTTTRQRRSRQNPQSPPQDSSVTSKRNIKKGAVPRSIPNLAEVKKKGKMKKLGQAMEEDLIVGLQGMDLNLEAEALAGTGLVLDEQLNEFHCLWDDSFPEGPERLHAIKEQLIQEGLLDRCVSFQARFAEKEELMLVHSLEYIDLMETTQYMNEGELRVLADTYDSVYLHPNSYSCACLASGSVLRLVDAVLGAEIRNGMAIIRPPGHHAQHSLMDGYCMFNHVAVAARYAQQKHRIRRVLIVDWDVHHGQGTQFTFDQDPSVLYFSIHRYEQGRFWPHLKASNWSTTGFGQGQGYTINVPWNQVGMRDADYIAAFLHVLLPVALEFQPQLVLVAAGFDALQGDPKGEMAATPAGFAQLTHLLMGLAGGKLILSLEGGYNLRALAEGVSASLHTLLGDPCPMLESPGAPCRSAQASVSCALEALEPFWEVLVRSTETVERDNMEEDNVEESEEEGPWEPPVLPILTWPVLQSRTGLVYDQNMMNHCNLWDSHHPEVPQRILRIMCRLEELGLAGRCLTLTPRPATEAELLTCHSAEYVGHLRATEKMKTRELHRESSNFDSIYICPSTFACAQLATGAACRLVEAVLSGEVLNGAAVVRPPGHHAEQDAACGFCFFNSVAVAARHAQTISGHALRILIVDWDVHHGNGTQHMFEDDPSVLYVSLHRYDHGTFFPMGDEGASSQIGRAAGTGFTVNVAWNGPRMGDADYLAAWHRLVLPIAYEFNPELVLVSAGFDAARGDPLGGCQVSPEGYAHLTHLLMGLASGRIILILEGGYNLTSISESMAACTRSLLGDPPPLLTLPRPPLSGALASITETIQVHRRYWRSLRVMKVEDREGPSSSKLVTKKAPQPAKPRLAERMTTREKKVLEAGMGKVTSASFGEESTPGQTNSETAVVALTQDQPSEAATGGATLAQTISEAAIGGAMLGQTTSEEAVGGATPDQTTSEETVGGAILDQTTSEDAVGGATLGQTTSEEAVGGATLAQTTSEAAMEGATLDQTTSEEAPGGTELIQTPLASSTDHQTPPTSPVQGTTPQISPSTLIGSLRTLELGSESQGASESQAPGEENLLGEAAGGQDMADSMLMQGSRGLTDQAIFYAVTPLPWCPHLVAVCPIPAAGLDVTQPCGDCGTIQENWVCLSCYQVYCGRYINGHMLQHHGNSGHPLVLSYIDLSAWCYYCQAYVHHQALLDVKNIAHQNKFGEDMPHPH
In short: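 HDAC6 human recombinant enzyme with fluorimetric substrate; […]. Reaction 60 min at 37° C, then developer 30 min at 37° C; fluorescence read at Ex 390/Em 460.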

T1 sequence (Q13547 whole entry): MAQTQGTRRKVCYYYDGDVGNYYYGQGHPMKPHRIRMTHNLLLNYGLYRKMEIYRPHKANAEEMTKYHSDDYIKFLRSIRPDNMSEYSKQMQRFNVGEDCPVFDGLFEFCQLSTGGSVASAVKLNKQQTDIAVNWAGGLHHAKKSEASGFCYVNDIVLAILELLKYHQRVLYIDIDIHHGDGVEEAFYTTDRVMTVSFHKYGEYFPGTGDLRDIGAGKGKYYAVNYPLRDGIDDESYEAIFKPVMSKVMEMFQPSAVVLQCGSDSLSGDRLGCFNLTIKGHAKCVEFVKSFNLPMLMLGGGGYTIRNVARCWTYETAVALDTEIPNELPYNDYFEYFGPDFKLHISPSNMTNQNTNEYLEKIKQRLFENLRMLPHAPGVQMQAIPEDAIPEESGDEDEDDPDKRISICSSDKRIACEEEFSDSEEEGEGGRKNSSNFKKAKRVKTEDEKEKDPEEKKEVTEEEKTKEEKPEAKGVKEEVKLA

Structure (SMILES) | pIC50 [1] | pIC50 [2]
CN1CCC(n2c(=O)n(Cc3ccc(-c4nnc(C(F)F)o4)cc3)c3ncccc32)CC1 [Compound 105, 3-(4-(5-(difluoromethyl)-1,3,4-oxadiazole-2-yl)benzyl)-1-(1-methylpiperidine-4-yl)-1,3-dihydro-2H-imidazo[4,5-b]pyridine-2-one] | < 5.00 | 6.19
CN1CC(n2c(=O)n(Cc3ccc(-c4nnc(C(F)F)o4)cn3)c3cc(F)c(-c4cccc5[nH]ccc45)cc32)C1 [Compound 257, 1-((5-(5-(difluoromethyl)-1,3,4-oxadiazole-2-yl)pyridine-2-yl)methyl)-6-fluoro-5-(1H-indole-4-yl)-3-(1-methylazetidine-3-yl)-1,3-dihydro-2H-benzo[d]imidazole-2-one] | < 5.00 | 7.92
O=c1n(Cc2ccc(-c3nnc(C(F)F)o3)cn2)c2cc(F)c(N3CCN(C4CCC4)CC3)cc2n1C1COC1 [Compound 320, 5-(4-cyclobutylpiperazine-1-yl)-1-((5-(5-(difluoromethyl)-1,3,4-oxadiazole-2-yl)pyridine-2-yl)methyl)-6-fluoro-3-(oxetan-3-yl)-1,3-dihydro-2H-benzo[d]imidazole-2-one] | < 5.00 | 7.39
O=c1n(Cc2ccc(-c3nnc(C(F)F)o3)cc2)c2cc(F)ccc2n1C1CCS(=O)(=O)CC1 [Compound 190, 3-(4-(5-(difluoromethyl)-1,3,4-oxadiazole-2-yl)benzyl)-1-(1,1-dioxydotetrahydro-2H-thiopyran-4-yl)-5-fluoro-1,3-dihydro-2H-benzo[d]imidazole-2-one] | < 5.00 | 7.34
CN1CCC(n2cc(-c3cc4oc(=O)n(Cc5ccc(-c6nnc(C(F)F)o6)cn5)c4cc3F)cn2)CC1 [Compound 360, 3-((5-(5-(difluoromethyl)-1,3,4-oxadiazole-2-yl)pyridine-2-yl)methyl)-5-fluoro-6-(1-(1-methylpiperidine-4-yl)-1H-pyrazole-4-yl)benzo[d]oxazole-2(3H)-one] | < 5.00 | 7.57
CC(=O)N1CCC(n2c(=O)n(Cc3ccc(-c4nnc(C(F)F)o4)cn3)c3ccccc32)CC1 [Compound 187, 1-(1-acetylpiperidine-4-yl)-3-((5-(5-(difluoromethyl)-1,3,4-oxadiazole-2-yl)pyridine-2-yl)methyl)-1,3-dihydro-2H-benzo[d]imidazole-2-one] | < 5.00 | 7.19
O=C(c1ccc(C(F)(F)F)cc1)N1CCC(n2c(=O)n(Cc3ccc(-c4nnc(C(F)F)o4)cn3)c3cc(F)ccc32)CC1 [Compound 62, 3-((5-(5-(difluoromethyl)-1,3,4-oxadiazole-2-yl)pyridine-2-yl)methyl)-5-fluoro-1-(1-(4-(trifluoromethyl)benzoyl)piperidine-4-yl)-1,3-dihydro-2H-benzo[d]imidazole-2-one] | < 5.00 | 6.59
CN1CCN(c2ncc(-c3cc4oc(=O)n(Cc5ccc(-c6nnc(C(F)F)o6)cn5)c4cc3F)cn2)CC1 [Compound 338, 3-((5-(5-(difluoromethyl)-1,3,4-oxadiazole-2-yl)pyridine-2-yl)methyl)-5-fluoro-6-(2-(4-methylpiperazine-1-yl)pyrimidine-5-yl)benzo[d]oxazole-2(3H)-one] | < 5.00 | 7.33
CN1CCC(n2c(=O)n(Cc3ccc(-c4nnc(C(F)F)o4)cc3F)c3cc(-c4cc(F)ccc4F)ccc32)CC1 [Compound 121, 3-(4-(5-(difluoromethyl)-1,3,4-oxadiazole-2-yl)-2-fluorobenzyl)-5-(2,5-difluorophenyl)-1-(1-methylpiperidine-4-yl)-1,3-dihydro-2H-benzo[d]imidazole-2-one] | < 5.00 | 5.50
CN1CCC(n2c(=O)n(Cc3ccc(-c4nnc(C(F)F)o4)cn3)c3cc(Cl)c(Cl)cc32)CC1 [Compound 81, 5,6-dichloro-1-((5-(5-(difluoromethyl)-1,3,4-oxadiazole-2-yl)pyridine-2-yl)methyl)-3-(1-methylpiperidine-4-yl)-1,3-dihydro-2H-benzo[d]imidazole-2-one] | < 5.00 | 7.82
CC(=O)N1CCC(n2c(=O)n(Cc3ccc(-c4nnc(C(F)F)o4)cn3)c3ccc(Cl)cc32)CC1 [Compound 181, 3-(1-acetylpiperidine-4-yl)-5-chloro-1-((5-(5-(difluoromethyl)-1,3,4-oxadiazole-2-yl)pyridine-2-yl)methyl)-1,3-dihydro-2H-benzo[d]imidazole-2-one] | < 5.00 | 7.17
Cn1c(=O)n(Cc2ccc(-c3nnc(C(F)F)o3)cn2)c2ccc(-c3cccnc3)cc21 [Compound 208, 1-((5-(5-(difluoromethyl)-1,3,4-oxadiazole-2-yl)pyridine-2-yl)methyl)-3-methyl-5-(pyridine-3-yl)-1,3-dihydro-2H-benzo[d]imidazole-2-one] | < 5.00 | 7.89
CC(C)N1CCC(n2c(=O)n(Cc3ccc(-c4nnc(C(F)F)o4)cn3)c3ccc(F)cc32)CC1 [Compound 46, 1-((5-(5-(difluoromethyl)-1,3,4-oxadiazole-2-yl)pyridine-2-yl)methyl)-5-fluoro-3-(1-isopropylpiperidine-4-yl)-1,3-dihydro-2H-benzo[d]imidazole-2-one] | < 5.00 | 6.99
O=c1n(Cc2ccc(-c3nnc(C(F)F)o3)cn2)c2cc(F)c(-c3cccnc3)cc2n1[C@@H]1CCCN(C2COC2)C1 [Compound 293, (R)-1-((5-(5-(difluoromethyl)-1,3,4-oxadiazole-2-yl)pyridine-2-yl)methyl)-6-fluoro-3-(1-(oxetan-3-yl)piperidine-3-yl)-5-(pyridine-3-yl)-1,3-dihydro-2H-benzo[d]imidazole-2-one] | < 5.00 | 8.10
Cc1ccc(-c2ccc3c(c2)n(Cc2ccc(-c4nnc(C(F)F)o4)cc2)c(=O)n3C2CCN(C)CC2)o1 [Compound 130] | < 5.00 | 6.54
O=c1n(Cc2ccc(-c3nnc(C(F)F)o3)cc2F)c2cc(F)ccc2n1C1CCS(=O)(=O)CC1 [Compound 189, 3-(4-(5-(difluoromethyl)-1,3,4-oxadiazole-2-yl)-2-fluorobenzyl)-1-(1,1-dioxydotetrahydro-2H-thiopyran-4-yl)-5-fluoro-1,3-dihydro-2H-benzo[d]imidazole-2-one] | < 5.00 | 7.43
CS(=O)(=O)N1CCC(n2c(=O)n(Cc3ccc(-c4nnc(C(F)F)o4)cn3)c3cc(F)c(F)cc32)CC1 [Compound 193, 1-((5-(5-(difluoromethyl)-1,3,4-oxadiazole-2-yl)pyridine-2-yl)methyl)-5,6-difluoro-3-(1-(methylsulfonyl)piperidine-4-yl)-1,3-dihydro-2H-benzo[d]imidazole-2-one] | < 5.00 | 7.32
O=c1n(Cc2ccc(-c3nnc(C(F)F)o3)cn2)c2ccc(Cl)cc2n1C1CCN(C2COC2)CC1 [Compound 98, 5-chloro-1-((5-(5-(difluoromethyl)-1,3,4-oxadiazole-2-yl)pyridine-2-yl)methyl)-3-(1-(oxetan-3-yl)piperidine-4-yl)-1,3-dihydro-2H-benzo[d]imidazole-2-one] | < 5.00 | 7.55
CN1CCC(n2c(=O)n(Cc3ccc(-c4nnc(C(F)F)o4)cn3)c3ccc(-c4cnoc4)cc32)CC1 [Compound 211, 1-((5-(5-(difluoromethyl)-1,3,4-oxadiazole-2-yl)pyridine-2-yl)methyl)-5-(isoxazole-4-yl)-3-(1-methylpiperidine-4-yl)-1,3-dihydro-2H-benzo[d]imidazole-2-one] | < 5.00 | 7.32

Source: patent publication US20230092890A1, “1, 3, 4-Oxadiazole derivative compounds as histone deacetylase 6 inhibitor, and the pharmaceutical composition comprising the same” (Chong Kun Dang Pharmaceutical Corp., priority 2019, published 2023)
